Results: patent publication US20050215621A1, “Method of treating amyloid beta precursor disorders” (Andrx Labs, LLC, priority 1999, published 2005)

Key:
[1] = test system: H4, MDCK, and CHO cells, expressing human APPm; experiment: [35S]-Met pulse-chase, immunoprecipitation (antibody 6E10) and autoradiography of Aβ peptides after 4 days with compound; type: cell-based, canine, Chinese hamster; conditions: for decrease of extracellular Aβ peptides as compared to the untreated cells: 0.5 μM, 4 days, H4, MDCK, CHO cells
Protocol: (§1) The three cell lines utilized were: Chinese Hamster Ovary (CHO) cells expressing the 751 amino acid form of APP; Mabin-Darby Canine Kidney (MDCK) cells which overexpress the 695 amino acid form of APP; Human neuroglioma (H4) cells overexpressing the 695 form of human APP. All cells were prepared by the stable introduction of a cDNA coding for human APP. All cell lines were maintained in DMEM containing 10% FBS and antibiotics.
In order to characterize the effects of cholesterol depletion, cell cultures of each cell line were cultured on six-well plates for 4 days in DMEM containing 10% FCLPDS, in the presence of lovastatin or lovastatin acid (LA).
For measurement of APP processing and Aβ peptide formation, medium was removed and the cells were washed once with PBS and then incubated for 2 hours in DMEM containing 1 mCi/ml [^35S] Methionine. After this “pulse” period, the cells were either (1) lysed to measure the total labeled APPi and APPm at time zero, or (2) the cells were incubated for 2 hours in fresh, unlabeled complete medium (“chase”) and then lysed. Then the cell supernatants and lysates were treated with the appropriate antibody to calculate the amounts of APPi, APPm, APPs, and Aβ peptides.
To measure Aβ peptides, or to measure APPs, which is the secreted carboxyl-terminal truncated form, cell supernatants were incubated with antibody 6E10,which recognizes the first 15 amino acids of the Aβ peptide that correspond to the COOH-terminal amino acids of APPs. See Buxbaum, J. D., et al. (I 994) Proc Natl Acad Sci USA, 91:4489-93, which is incorporated herein by reference.
The incubations with antibody 6E10 or antibody 369 were performed at 4° C. for 75 minutes followed by a 45 minute incubation at 4° C. with either agarose-linked anti-mouse IgG for antibody 6E1O or protein A sepharose for antibody 369. The beads were then washed three times for 10 minutes and then run on either a 10-20% Tris-Tricine Gel for APPs and Aβ peptides or an 8% polyacrylamide gel for cell-associated APP. The gels were dried and exposed to a Phosphor Imager® screen (STORM 860, Molecular Dynamics) and exposed for a minimum of two days. The protein bands were visualized on a STORM 860 Phosphor Imager® (Molecular Dynamics) and quantitated using ImageQuant® (Molecular Dynamics).
To determine whether a decrease in cholesterol is associated with a change in the amount of extracellular Aβ peptides, the H4, MDCK, and CHO cells, expressing human APPm were incubated for 4 days in the presence or absence of 0.5 μM LA. The cells were then incubated in serum-free media containing 1 mCi/mi [^35S] […] Relative levels of extracellular Aβ peptides were determined under each condition by quantitative PhosphorImager autoradiography. […]

[2] = test system: Human neuroglioma (H4) cells overexpressing the 695 form of human APP; experiment: APP processing ([35S]-labeled APPs and APPm) in H4 cells; type: cell-based
Protocol: as §1
For measurement of APP processing and Aβ peptide formation, medium was removed and the cells were washed once with PBS and then incubated for 2 hours in DMEM containing 1 mCi/ml [^35S] Methionine. […]
The incubations with antibody 6E10 or antibody 369 were performed at 4° C. for 75 minutes followed by a 45 minute incubation at 4° C. with either agarose-linked anti-mouse IgG for antibody 6E1O or protein A sepharose for antibody 369. […] The protein bands were visualized on a STORM 860 Phosphor Imager® (Molecular Dynamics) and quantitated using ImageQuant® (Molecular Dynamics).
To determine whether cholesterol depletion affects other aspects of APP processing, H4 cells were incubated for four days in the presence or absence of 0.5 μM LA, and subjected to metabolic labeling. The levels of [^35S]-labeled APPi and APPm were determined by immunoprecipitation from cell lysates with an antibody against the COOH-terminal of APP, followed by quantitative autoradiography. […]

Compound | [35S]-labeled intracellular Aβ peptides in cell lysates ([1]; 0.5 μM LA) | decrease of extracellular Aβ peptides as compared to the untreated cells [1] | concentration sufficient to significantly (p<0.001) decrease extracellular Aβ peptides ([1]; each cell type, various LA concentrations) | effects on maturation ([35S]-labeled APPm levels) ([2]; 0.5 μM LA (FIG. 6)) | [35S]-labeled APPs formation compared to control cells ([2]; H4 cells, 0.5 μM LA, 4 days (FIG. 5))
CC[C@H](C)C(=O)O[C@H]1C[C@@H](C)C=C2C=C[C@H](C)[C@H](CC[C@@H](O)C[C@@H](O)CC(=O)O)[C@H]21 [LA, lovastatin acid] | No detectable levels | 40-60% | ≥ 0.05 µM | not sufficient to account for the decrease in Aβ peptide levels | modest decrease
CC[C@H](C)C(=O)O[C@H]1C[C@@H](C)C=C2C=C[C@H](C)[C@H](CC[C@@H]3C[C@@H](O)CC(=O)O3)[C@H]21 [lovastatin] | – | < 20% | – | – | –
